Laboratory results: patent publication US7556939B2, “Identification and characterization of racemases, definition of protein signatures, and a test for detecting D-amino acid and for screening molecules capable of inhibiting the activity of racemase, especially proline racemase” (Institut Pasteur, priority 2003, dated 2009)

Legend:
D-AAO = molecular target: T1, D-AAO (Sus scrofa, UniProt P00371); assay: D-AAO/HRP reaction on D-proline in presence of PAC or L-proline; type: biochemical, swine; conditions: equimolar mixture of D- and L-Proline versus D-Proline alone
T1 construct: purchased Sigma A-5222; host or cells: swine kidney
T1 sequence (P00371 whole entry): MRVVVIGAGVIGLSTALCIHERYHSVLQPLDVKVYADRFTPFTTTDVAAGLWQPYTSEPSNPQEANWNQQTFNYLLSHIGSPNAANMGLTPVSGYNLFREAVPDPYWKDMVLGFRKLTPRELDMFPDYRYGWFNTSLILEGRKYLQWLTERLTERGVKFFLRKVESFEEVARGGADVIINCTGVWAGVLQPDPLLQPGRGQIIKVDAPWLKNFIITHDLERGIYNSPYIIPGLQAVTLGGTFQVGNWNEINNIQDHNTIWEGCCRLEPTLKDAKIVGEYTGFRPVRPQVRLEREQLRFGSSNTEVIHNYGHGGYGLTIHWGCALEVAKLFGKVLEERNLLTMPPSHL

TcPRAC enzyme isoforms = conditions: span over the enzyme isoforms
Procedure: Optical rotation was measured every 5 sec during 10 min and every 5 min to 1 hour. […] Calculations were done using the Kaleïdagraph program. […] Graphic representation and linear curve regression allowed the determination of Ki as [PAC]/[(slope with PAC/slope without PAC)−1]. All reagents were purchased from Sigma.

CsPR = molecular target: T2, CsPR (Acetoanaerobium sticklandii, UniProt E3PTZ4); conditions: reported for the proline racemase of C. sticklandii; cited from earlier work
T2 sequence (E3PTZ4 1-335): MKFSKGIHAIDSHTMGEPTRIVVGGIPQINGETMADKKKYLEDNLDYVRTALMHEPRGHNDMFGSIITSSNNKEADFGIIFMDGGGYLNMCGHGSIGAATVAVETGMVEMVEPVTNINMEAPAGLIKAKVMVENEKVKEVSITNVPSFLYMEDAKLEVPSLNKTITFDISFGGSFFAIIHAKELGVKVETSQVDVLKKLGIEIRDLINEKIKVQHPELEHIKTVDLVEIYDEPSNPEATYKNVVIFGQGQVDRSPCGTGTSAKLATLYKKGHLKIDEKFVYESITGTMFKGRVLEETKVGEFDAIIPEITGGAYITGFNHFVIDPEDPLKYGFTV

O=C(O)[C@@H]1CCCN1 [L-proline]
effect on D-amino-oxidase activity (D-AAO): Inhibits | Km (TcPRAC enzyme isoforms): 29 to 75 mM | Km (CsPR): 2.3 mM
